Laboratory results taken from patent US4444776A, “Dipyrido (4,3-B) (3,4-F) indoles, process for obtaining them, therapeutical use and pharmaceutical compositions” (priority 1977, dated 1984).

Key:
[1] = system: tumoral strain derived from the murine leukemia due to the C. FRIEND virus; assay: Test 7: antitumoral activity in vitro on Friend leukemia tumoral strain; format: cell-based; conditions: HUM = 1
Protocol: Test 7: Study of the antitumoral activity in vitro
This activity was measured on a tumoral strain derived from the murine leukemia due to the C. FRIEND virus.
The tumoral cells multiply in suspension in a "RPMI 1640" medium (Catalogue of GIBCO Bio-cult. Ltd. Washington Road, Sandyford Industrial Estate, PAISLEY PA 3 4EP, Renfrewshire, Scotland) supplemented with 20% of embryonary calf serum, penicillin and streptomycine. The duplication time of these cells is 11 hours. The growth fraction is equal to 1 or very close to 1 (all the cells are in the cycle). The cultures are sub-culturedat time t=0 at the concentration of 2.10^5 cells per ml in Falcon dishes containing 4 ml of medium. After twenty four hours, the product to be tested was added, i.e. at a moment when the cultures are in exponential phase of growth. Twenty four hours after the addition of the product, the cells are counted and the percentage of living cells determined by an exclusion test using "trypan" blue.

L1210 leukemia = assay: Test 16: structure-activity of R'1 substitution, L1210 (Table XII); format: in vivo, mouse (C57B16xDBA/2)F1; parameters: MST: unit not given here; conditions: 10^4 cells; 20 mg/kg, day +4
Protocol: Test 16: Relationship between structure and activity of various dipyrido indoles differing by the R'1 substitution.
L1210 leukemia has been maintained by weekly passages on (C57B16xDBA/2)F1 mice. On day 0, mice were inoculated by I.P. route with various numbers of L1210 ascitic tumor cells in volumes of 0.1 ml. Subsequently as indicated, drugs were administrated in Ca^++ and Mg^++ free PBS solutions (Gibco) or in Mac Coy's medium (Gibso or Microbiological Associates). […]

`Cc1c2cc[n+](C)cc2c(C)c2c1[nH]c1cc[n+](C)cc12` [Example 2, 2,5,9,11-tetramethyl dipyrido [4,3-b][3,4-f] indolinium diacetate] was tested, and the “Activity (ratio of the LD50 of HUM to the LD50 of the product tested)” value [1] was 0.2, the 60 days surv. (L1210 leukemia) was 0 and the ILS % (L1210 leukemia) was 0.9%. The MST (L1210 leukemia) was 11.3 and the Range of death (L1210 leukemia) was 10-17.
